From ChEMBL document CHEMBL5325414, “Novel neuroprotective pyromeconic acid derivatives with concurrent anti-Aβ deposition, anti-inflammatory, and anti-oxidation properties for treatment of Alzheimer's disease” (Eur J Med Chem, 2023)

System: not listed separately
Experiment: Antioxidant activity by measuring oxygen radical absorbance capacity-fluorescein values
Assay type: functional
Settings: not given

SMILES | Activity index
CC(C)(C)c1ccc(/C=C/c2occc(=O)c2O)cc1 | 0.07
O=c1ccoc(/C=C/c2ccccc2F)c1O | 1.49
O=c1ccoc(/C=C/c2ccc(Cl)cc2)c1O | 1.02
COc1cc(/C=C/c2occc(=O)c2O)ccc1O | 1.96
O=c1ccoc(/C=C/c2ccc(N3CCOCC3)cc2)c1O | 2.25
O=c1ccoc(/C=C/c2cccc(Cl)c2)c1O | 1.21
O=c1ccoc(/C=C/c2cccc(F)c2)c1O | 1.55
O=c1ccoc(/C=C/c2ccccc2Cl)c1O | 1.13
COC(=O)c1ccc(/C=C/c2occc(=O)c2O)cc1 | 0.25
O=c1ccoc(/C=C/c2ccc(O)c(F)c2)c1O | 2.78
COc1cccc(/C=C/c2occc(=O)c2O)c1 | 0.8
O=c1ccoc(/C=C/c2ccc(O)cc2)c1O | 2.79
N#Cc1ccc(/C=C/c2occc(=O)c2O)cc1 | 1.9
O=c1ccoc(/C=C/c2ccc(-c3ccccc3)cc2)c1O | 0.4
O=c1ccoc(/C=C/c2ccc([N+](=O)[O-])cc2)c1O | 0.79
CN1CCN(c2ccc(/C=C/c3occc(=O)c3O)cc2)CC1 | 2.33

SMILES | Activity index
O=c1ccoc(/C=C/c2ccc(N3CCSCC3)cc2)c1O | 1.48
O=c1ccoc(/C=C/c2ccc3ccccc3c2)c1O | 1.38
O=c1ccocc1O | 1.75
O=c1ccoc(/C=C/c2ccc(F)cc2)c1O | 1.13
O=c1ccoc(/C=C/c2ccc(C(F)(F)F)cc2)c1O | 0.12
O=c1ccoc(/C=C/c2ccc(F)c(O)c2)c1O | 3.19
O=c1ccoc(/C=C/c2ccc(N3CCCCC3)cc2)c1O | 2.21
Cc1ccc(/C=C/c2occc(=O)c2O)cc1 | 0.32
COc1ccc(/C=C/c2occc(=O)c2O)cc1O | 1.62
COc1ccccc1/C=C/c1occc(=O)c1O | 0.79
O=c1ccoc(/C=C/c2ccccc2)c1O | 0.52
Cc1c(C)c2c(c(C)c1O)CCC(C)(C(=O)O)O2 (stereo not drawn) | 1
COc1ccc(/C=C/c2occc(=O)c2O)cc1 | 0.75
CN(C)c1ccc(/C=C/c2occc(=O)c2O)cc1 | 0.87
COc1ccc(/C=C/c2occc(=O)c2O)cc1OC | 1.73

System: BV-2
Experiment: Antiinflammatory activity in LPS induced mouse BV-2 cells decrease in release of […] at 5 uM by […] (reference value: 100%)
Assay type: functional
Settings: not given

SMILES | Nitric oxide release (% of LPS control) [%]
CC(C)(C)c1ccc(/C=C/c2occc(=O)c2O)cc1 | 94.03
O=c1ccoc(/C=C/c2ccccc2F)c1O | 56.97
O=c1ccoc(/C=C/c2ccc(Cl)cc2)c1O | 97.73
COc1cc(/C=C/c2occc(=O)c2O)ccc1O | 90.67
O=c1ccoc(/C=C/c2ccc(N3CCOCC3)cc2)c1O | 100.11
O=c1ccoc(/C=C/c2cccc(Cl)c2)c1O | 88.17
O=c1ccoc(/C=C/c2cccc(F)c2)c1O | 71.55
O=c1ccoc(/C=C/c2ccccc2Cl)c1O | 54.58
COC(=O)c1ccc(/C=C/c2occc(=O)c2O)cc1 | 71.82
O=c1ccoc(/C=C/c2ccc(O)c(F)c2)c1O | 86.66
COc1cccc(/C=C/c2occc(=O)c2O)c1 | 72.79
O=c1ccoc(/C=C/c2ccc(O)cc2)c1O | 86.81
N#Cc1ccc(/C=C/c2occc(=O)c2O)cc1 | 88
O=c1ccoc(/C=C/c2ccc(-c3ccccc3)cc2)c1O | 87.38
O=c1ccoc(/C=C/c2ccc([N+](=O)[O-])cc2)c1O | 88.99
CN1CCN(c2ccc(/C=C/c3occc(=O)c3O)cc2)CC1 | 96.04

SMILES | Nitric oxide release (% of LPS control) [%]
O=c1ccoc(/C=C/c2ccc(N3CCSCC3)cc2)c1O | 98.13
O=c1ccoc(/C=C/c2ccc3ccccc3c2)c1O | 102.37
O=c1ccocc1O | 93.85
O=c1ccoc(/C=C/c2ccc(F)cc2)c1O | 88.36
O=c1ccoc(/C=C/c2ccc(C(F)(F)F)cc2)c1O | 88.82
O=c1ccoc(/C=C/c2ccc(F)c(O)c2)c1O | 93.87
O=c1ccoc(/C=C/c2ccc(N3CCCCC3)cc2)c1O | 100.49
Cc1ccc(/C=C/c2occc(=O)c2O)cc1 | 85.2
COc1ccc(/C=C/c2occc(=O)c2O)cc1O | 90.08
COc1ccccc1/C=C/c1occc(=O)c1O | 77.3
O=c1ccoc(/C=C/c2ccccc2)c1O | 78.21
Oc1ccc(/C=C/c2cc(O)cc(O)c2)cc1 [RESVERATROL] | 86.97
COc1ccc(/C=C/c2occc(=O)c2O)cc1 | 91.49
CN(C)c1ccc(/C=C/c2occc(=O)c2O)cc1 | 92.3
COc1ccc(/C=C/c2occc(=O)c2O)cc1OC | 97.14

Molecular target: T1, Amyloid-beta precursor protein (Homo sapiens, UniProt P05067)
Experiment: Inhibition of amyloid beta (1 to 42) (unknown origin) self aggregation at 50 uM relative to control
Settings: not given

T1 sequence (P05067 whole entry): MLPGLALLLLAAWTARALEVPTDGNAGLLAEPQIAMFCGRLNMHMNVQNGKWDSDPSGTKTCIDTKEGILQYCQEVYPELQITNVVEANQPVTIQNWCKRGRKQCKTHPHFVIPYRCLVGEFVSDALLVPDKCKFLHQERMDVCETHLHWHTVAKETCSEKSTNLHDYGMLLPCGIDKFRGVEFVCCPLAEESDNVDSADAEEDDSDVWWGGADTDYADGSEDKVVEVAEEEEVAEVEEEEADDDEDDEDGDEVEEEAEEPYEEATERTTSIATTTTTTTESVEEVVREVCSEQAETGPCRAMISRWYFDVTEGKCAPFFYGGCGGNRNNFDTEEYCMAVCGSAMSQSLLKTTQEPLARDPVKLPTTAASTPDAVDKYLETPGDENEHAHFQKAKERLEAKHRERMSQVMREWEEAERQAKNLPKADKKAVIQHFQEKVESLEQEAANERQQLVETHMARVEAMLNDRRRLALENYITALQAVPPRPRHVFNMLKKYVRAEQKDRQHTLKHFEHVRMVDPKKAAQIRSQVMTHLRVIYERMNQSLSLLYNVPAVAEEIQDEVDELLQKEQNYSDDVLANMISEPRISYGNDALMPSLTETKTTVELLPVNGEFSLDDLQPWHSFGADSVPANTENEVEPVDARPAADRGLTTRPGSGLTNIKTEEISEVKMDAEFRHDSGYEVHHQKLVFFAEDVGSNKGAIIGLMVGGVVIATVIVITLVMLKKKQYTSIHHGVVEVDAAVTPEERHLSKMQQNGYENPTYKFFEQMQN

inhibition [%] | SMILES
37.7 | CC(C)(C)c1ccc(/C=C/c2occc(=O)c2O)cc1
19.9 | O=c1ccoc(/C=C/c2ccccc2F)c1O
30.4 | O=c1ccoc(/C=C/c2ccc(Cl)cc2)c1O
48.5 | COc1cc(/C=C/c2occc(=O)c2O)ccc1O
50.4 | O=c1ccoc(/C=C/c2ccc(N3CCOCC3)cc2)c1O
23.2 | O=c1ccoc(/C=C/c2cccc(Cl)c2)c1O
24.2 | O=c1ccoc(/C=C/c2cccc(F)c2)c1O
27.7 | O=c1ccoc(/C=C/c2ccccc2Cl)c1O
33.7 | COC(=O)c1ccc(/C=C/c2occc(=O)c2O)cc1
36.1 | O=c1ccoc(/C=C/c2ccc(O)c(F)c2)c1O
13.6 | COc1cccc(/C=C/c2occc(=O)c2O)c1
36.7 | O=c1ccoc(/C=C/c2ccc(O)cc2)c1O
16.8 | N#Cc1ccc(/C=C/c2occc(=O)c2O)cc1
52 | O=c1ccoc(/C=C/c2ccc(-c3ccccc3)cc2)c1O
56.8 | O=c1ccoc(/C=C/c2ccc([N+](=O)[O-])cc2)c1O
30.6 | CN1CCN(c2ccc(/C=C/c3occc(=O)c3O)cc2)CC1
53.9 | O=c1ccoc(/C=C/c2ccc(N3CCSCC3)cc2)c1O
50.6 | O=c1ccoc(/C=C/c2ccc3ccccc3c2)c1O
8.6 | O=c1ccoc(/C=C/c2ccc(F)cc2)c1O
30.5 | O=c1ccoc(/C=C/c2ccc(C(F)(F)F)cc2)c1O
23.8 | O=c1ccoc(/C=C/c2ccc(F)c(O)c2)c1O
59.6 | O=c1ccoc(/C=C/c2ccc(N3CCCCC3)cc2)c1O
28.6 | Cc1ccc(/C=C/c2occc(=O)c2O)cc1
57.4 | COc1ccc(/C=C/c2occc(=O)c2O)cc1O
23.5 | COc1ccccc1/C=C/c1occc(=O)c1O
7.59 | O=c1ccoc(/C=C/c2ccccc2)c1O
73.2 | Oc1ccc(/C=C/c2cc(O)cc(O)c2)cc1 [RESVERATROL]
34 | COc1ccc(/C=C/c2occc(=O)c2O)cc1
53.7 | CN(C)c1ccc(/C=C/c2occc(=O)c2O)cc1
10.4 | COc1ccc(/C=C/c2occc(=O)c2O)cc1OC

Molecular target: T1, Amyloid-beta precursor protein
Experiment: Inhibition of amyloid beta (1 to 42) (unknown origin) self aggregation
Settings: not given

IC50 [µM] | SMILES
49.4 | O=c1ccoc(/C=C/c2ccc(N3CCOCC3)cc2)c1O
38.2 | O=c1ccoc(/C=C/c2ccc([N+](=O)[O-])cc2)c1O
46.8 | O=c1ccoc(/C=C/c2ccc(N3CCSCC3)cc2)c1O
33.4 | O=c1ccoc(/C=C/c2ccc(N3CCCCC3)cc2)c1O
43.7 | COc1ccc(/C=C/c2occc(=O)c2O)cc1O
47.2 | CN(C)c1ccc(/C=C/c2occc(=O)c2O)cc1

Molecular target: T1, Amyloid-beta precursor protein
Experiment: Inhibition of amyloid beta (1 to 42) (unknown origin) self aggregation assessed as disaggregation relative to control
Design: concentration or dose not given beside the values
Settings: concentration not given here

inhibition [%] | SMILES
31.6 | CC(C)(C)c1ccc(/C=C/c2occc(=O)c2O)cc1
12.6 | O=c1ccoc(/C=C/c2ccccc2F)c1O
26.9 | O=c1ccoc(/C=C/c2ccc(Cl)cc2)c1O
42.9 | COc1cc(/C=C/c2occc(=O)c2O)ccc1O
65.8 | O=c1ccoc(/C=C/c2ccc(N3CCOCC3)cc2)c1O
28.2 | O=c1ccoc(/C=C/c2cccc(Cl)c2)c1O
18.5 | O=c1ccoc(/C=C/c2cccc(F)c2)c1O
19.2 | O=c1ccoc(/C=C/c2ccccc2Cl)c1O
27.6 | COC(=O)c1ccc(/C=C/c2occc(=O)c2O)cc1
32.2 | O=c1ccoc(/C=C/c2ccc(O)c(F)c2)c1O
42.8 | COc1cccc(/C=C/c2occc(=O)c2O)c1
29.6 | O=c1ccoc(/C=C/c2ccc(O)cc2)c1O
17 | N#Cc1ccc(/C=C/c2occc(=O)c2O)cc1
46.7 | O=c1ccoc(/C=C/c2ccc(-c3ccccc3)cc2)c1O
62.8 | O=c1ccoc(/C=C/c2ccc([N+](=O)[O-])cc2)c1O
56.1 | CN1CCN(c2ccc(/C=C/c3occc(=O)c3O)cc2)CC1
62.8 | O=c1ccoc(/C=C/c2ccc(N3CCSCC3)cc2)c1O
45.9 | O=c1ccoc(/C=C/c2ccc3ccccc3c2)c1O
14.8 | O=c1ccoc(/C=C/c2ccc(F)cc2)c1O
25.9 | O=c1ccoc(/C=C/c2ccc(C(F)(F)F)cc2)c1O
24 | O=c1ccoc(/C=C/c2ccc(F)c(O)c2)c1O
60.5 | O=c1ccoc(/C=C/c2ccc(N3CCCCC3)cc2)c1O
15.1 | Cc1ccc(/C=C/c2occc(=O)c2O)cc1
48.9 | COc1ccc(/C=C/c2occc(=O)c2O)cc1O
30.9 | COc1ccccc1/C=C/c1occc(=O)c1O
8.21 | O=c1ccoc(/C=C/c2ccccc2)c1O
39 | COc1ccc(/C=C/c2occc(=O)c2O)cc1
47.6 | CN(C)c1ccc(/C=C/c2occc(=O)c2O)cc1
20.6 | COc1ccc(/C=C/c2occc(=O)c2O)cc1OC

Molecular target: T1, Amyloid-beta precursor protein
Experiment: Inhibition of amyloid beta (1 to 42) (unknown origin) self aggregation assessed as disaggregation
Settings: not given

IC50 [µM] | SMILES
23.9 | O=c1ccoc(/C=C/c2ccc(N3CCOCC3)cc2)c1O
26.3 | O=c1ccoc(/C=C/c2ccc([N+](=O)[O-])cc2)c1O
28.5 | O=c1ccoc(/C=C/c2ccc(N3CCSCC3)cc2)c1O
27.2 | O=c1ccoc(/C=C/c2ccc(N3CCCCC3)cc2)c1O
43.2 | COc1ccc(/C=C/c2occc(=O)c2O)cc1O
42.4 | CN(C)c1ccc(/C=C/c2occc(=O)c2O)cc1
